From ChEMBL document CHEMBL6121021, “Design and Synthesis of Topoisomerases-Histone Deacetylase Dual Targeted Quinoline-Bridged Hydroxamates as Anticancer Agents” (J Med Chem, 2025)
The source made the active and inactive calls. No cut-off for these calls is given here.

Legend:
MDA-MB-231 [1] = assay: Anti-cancer activity against human MDA-MB-231 cells assessed as decrease in p53 level at 10 uM incubated for 48 hrs by immunoblot analysis; type: functional, cell-based
MDA-MB-231 [2] = assay: Anti-cancer activity against human MDA-MB-231 cells assessed as decrease in PCNA level at 10 uM incubated for 48 hrs by immunoblot analysis; type: functional, cell-based
MDA-MB-231 [3] = assay: Anti-cancer activity against human MDA-MB-231 cells assessed as decrease in p21 level at 1 uM incubated for 48 hrs by immunoblot analysis; type: functional, cell-based
MDA-MB-231 [4] = assay: Anti-cancer activity against human MDA-MB-231 cells assessed as decrease in p21 level at higher concentration incubated for 48 hrs by immunoblot analysis; type: functional, cell-based
MDA-MB-231 [5] = assay: Anti-cancer activity against human MDA-MB-231 cells assessed as decrease in CDK-4 level at 10 uM incubated for 48 hrs by immunoblot analysis; type: functional, cell-based
[6] = Drug metabolism in human hepatocytes assessed as formation of O-demethylated M6 metabolite conjugated with sulphate at 10 uM by LC-MS/MS analysis; type: ADME, cell-based, Hepatocyte
A549 [7] = assay: In vivo inhibition of epithelial-mesenchymal transition in human A549 cells xenografted in athymic nude Crl:NU-Foxn1nu mouse assessed as decrease in Twist mRNA level at 30 mg/kg, po administered twice a week for 1 month by qPCR analysis; type: functional, organism-based; conditions: time 1.0 months
MDA-MB-231 [8] = assay: Anti-cancer activity against human MDA-MB-231 cells assessed as decrease in p53 level at 1 to 3 uM incubated for 48 hrs by immunoblot analysis; type: functional, cell-based; conditions: dose 1-3 µM
A549 [9] = assay: Induction of cell cycle arrest in human A549 cells assessed as accumulation at G1 phase at 500 nM by PI staining based flow cytometry; type: functional
[10] = target: Histone deacetylase 3/Nuclear receptor corepressor 2 (HDAC3/NCoR2) (Homo sapiens, UniProt O15379); assay: Inhibition of His/GST-tagged recombinant human HDAC3/NcoR2 by fluorogenic assay; type: protein-complex assay
Sequence of Histone deacetylase 3/Nuclear receptor corepressor 2 (HDAC3/NCoR2) (O15379 whole entry): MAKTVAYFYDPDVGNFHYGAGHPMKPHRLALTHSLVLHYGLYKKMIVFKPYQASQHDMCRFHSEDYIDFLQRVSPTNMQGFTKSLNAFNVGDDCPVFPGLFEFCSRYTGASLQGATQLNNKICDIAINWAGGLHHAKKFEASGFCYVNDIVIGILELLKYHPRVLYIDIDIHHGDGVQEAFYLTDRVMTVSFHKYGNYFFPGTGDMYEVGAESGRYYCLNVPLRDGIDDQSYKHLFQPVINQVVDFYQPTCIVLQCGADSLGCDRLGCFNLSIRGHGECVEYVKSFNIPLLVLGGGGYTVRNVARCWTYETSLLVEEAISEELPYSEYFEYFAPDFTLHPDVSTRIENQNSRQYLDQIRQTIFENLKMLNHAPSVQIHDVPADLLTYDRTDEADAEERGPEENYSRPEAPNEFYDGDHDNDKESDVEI
Sequence of Histone deacetylase 3/Nuclear receptor corepressor 2 (HDAC3/NCoR2) (Q9Y618 whole entry, further chain): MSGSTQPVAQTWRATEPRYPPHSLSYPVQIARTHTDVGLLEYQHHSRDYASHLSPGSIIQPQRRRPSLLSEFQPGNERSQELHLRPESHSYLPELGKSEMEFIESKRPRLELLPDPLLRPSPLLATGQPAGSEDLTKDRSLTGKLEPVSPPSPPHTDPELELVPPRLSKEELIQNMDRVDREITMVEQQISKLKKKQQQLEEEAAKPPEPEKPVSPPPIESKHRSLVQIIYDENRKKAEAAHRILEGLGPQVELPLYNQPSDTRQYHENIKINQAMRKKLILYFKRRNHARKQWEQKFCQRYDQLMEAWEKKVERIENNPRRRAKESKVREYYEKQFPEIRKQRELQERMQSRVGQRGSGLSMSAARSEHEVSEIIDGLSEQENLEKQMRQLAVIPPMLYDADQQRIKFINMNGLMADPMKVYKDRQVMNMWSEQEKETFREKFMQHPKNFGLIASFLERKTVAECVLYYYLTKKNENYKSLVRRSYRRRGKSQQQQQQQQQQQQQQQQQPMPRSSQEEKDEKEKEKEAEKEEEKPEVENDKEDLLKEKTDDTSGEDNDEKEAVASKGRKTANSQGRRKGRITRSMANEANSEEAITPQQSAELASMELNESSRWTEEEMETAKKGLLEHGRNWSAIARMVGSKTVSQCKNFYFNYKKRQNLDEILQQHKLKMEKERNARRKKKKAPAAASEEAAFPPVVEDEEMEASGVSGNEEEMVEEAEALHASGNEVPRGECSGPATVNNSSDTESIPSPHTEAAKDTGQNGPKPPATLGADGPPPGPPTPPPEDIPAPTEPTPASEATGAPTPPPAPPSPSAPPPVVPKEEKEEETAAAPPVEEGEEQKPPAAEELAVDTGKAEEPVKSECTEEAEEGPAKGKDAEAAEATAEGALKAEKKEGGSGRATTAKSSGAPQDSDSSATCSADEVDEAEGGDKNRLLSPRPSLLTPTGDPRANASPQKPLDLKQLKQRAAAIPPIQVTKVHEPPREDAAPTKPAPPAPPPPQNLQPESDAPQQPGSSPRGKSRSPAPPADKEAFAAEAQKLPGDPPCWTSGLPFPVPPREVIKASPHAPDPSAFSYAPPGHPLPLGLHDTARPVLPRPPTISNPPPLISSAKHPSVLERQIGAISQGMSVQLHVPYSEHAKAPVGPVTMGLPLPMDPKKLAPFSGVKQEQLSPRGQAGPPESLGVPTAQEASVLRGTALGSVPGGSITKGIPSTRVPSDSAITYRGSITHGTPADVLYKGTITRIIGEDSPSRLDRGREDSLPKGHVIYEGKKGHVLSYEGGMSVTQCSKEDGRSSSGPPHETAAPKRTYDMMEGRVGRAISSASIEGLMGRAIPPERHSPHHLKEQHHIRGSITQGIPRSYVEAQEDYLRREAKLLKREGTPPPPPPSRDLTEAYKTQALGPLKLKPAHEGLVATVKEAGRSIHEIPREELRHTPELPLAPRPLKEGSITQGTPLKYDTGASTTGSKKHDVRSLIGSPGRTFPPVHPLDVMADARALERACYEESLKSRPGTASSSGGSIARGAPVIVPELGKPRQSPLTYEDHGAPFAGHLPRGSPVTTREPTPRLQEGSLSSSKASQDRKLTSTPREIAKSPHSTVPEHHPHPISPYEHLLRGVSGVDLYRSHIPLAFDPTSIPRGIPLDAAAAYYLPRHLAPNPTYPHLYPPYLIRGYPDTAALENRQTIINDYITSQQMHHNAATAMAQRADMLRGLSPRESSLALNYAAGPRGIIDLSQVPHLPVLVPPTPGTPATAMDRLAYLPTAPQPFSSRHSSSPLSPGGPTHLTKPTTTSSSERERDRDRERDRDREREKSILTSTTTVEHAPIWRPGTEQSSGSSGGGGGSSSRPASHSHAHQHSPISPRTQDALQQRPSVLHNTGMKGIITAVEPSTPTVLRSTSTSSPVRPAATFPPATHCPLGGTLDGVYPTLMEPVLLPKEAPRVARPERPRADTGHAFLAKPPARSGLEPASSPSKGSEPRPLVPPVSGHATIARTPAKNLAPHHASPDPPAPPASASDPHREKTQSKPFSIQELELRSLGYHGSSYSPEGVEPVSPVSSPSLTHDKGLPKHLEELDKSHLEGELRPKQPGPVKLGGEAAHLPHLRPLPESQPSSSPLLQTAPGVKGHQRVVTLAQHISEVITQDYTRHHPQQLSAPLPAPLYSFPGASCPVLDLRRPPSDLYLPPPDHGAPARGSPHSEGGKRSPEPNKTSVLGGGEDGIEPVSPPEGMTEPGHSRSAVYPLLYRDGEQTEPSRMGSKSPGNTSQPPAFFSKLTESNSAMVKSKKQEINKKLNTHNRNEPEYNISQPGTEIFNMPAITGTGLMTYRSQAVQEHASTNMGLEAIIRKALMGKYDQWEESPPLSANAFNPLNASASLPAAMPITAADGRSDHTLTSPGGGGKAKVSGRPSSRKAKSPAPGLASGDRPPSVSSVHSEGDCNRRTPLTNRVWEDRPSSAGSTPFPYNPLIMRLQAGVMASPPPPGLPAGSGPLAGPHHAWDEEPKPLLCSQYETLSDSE

Histone deacetylase 9 = Histone deacetylase 9 (Homo sapiens, UniProt Q9UKV0); assay: Inhibition of His-tagged recombinant human HDAC9 by fluorogenic assay
Sequence of Histone deacetylase 9 (Q9UKV0 whole entry): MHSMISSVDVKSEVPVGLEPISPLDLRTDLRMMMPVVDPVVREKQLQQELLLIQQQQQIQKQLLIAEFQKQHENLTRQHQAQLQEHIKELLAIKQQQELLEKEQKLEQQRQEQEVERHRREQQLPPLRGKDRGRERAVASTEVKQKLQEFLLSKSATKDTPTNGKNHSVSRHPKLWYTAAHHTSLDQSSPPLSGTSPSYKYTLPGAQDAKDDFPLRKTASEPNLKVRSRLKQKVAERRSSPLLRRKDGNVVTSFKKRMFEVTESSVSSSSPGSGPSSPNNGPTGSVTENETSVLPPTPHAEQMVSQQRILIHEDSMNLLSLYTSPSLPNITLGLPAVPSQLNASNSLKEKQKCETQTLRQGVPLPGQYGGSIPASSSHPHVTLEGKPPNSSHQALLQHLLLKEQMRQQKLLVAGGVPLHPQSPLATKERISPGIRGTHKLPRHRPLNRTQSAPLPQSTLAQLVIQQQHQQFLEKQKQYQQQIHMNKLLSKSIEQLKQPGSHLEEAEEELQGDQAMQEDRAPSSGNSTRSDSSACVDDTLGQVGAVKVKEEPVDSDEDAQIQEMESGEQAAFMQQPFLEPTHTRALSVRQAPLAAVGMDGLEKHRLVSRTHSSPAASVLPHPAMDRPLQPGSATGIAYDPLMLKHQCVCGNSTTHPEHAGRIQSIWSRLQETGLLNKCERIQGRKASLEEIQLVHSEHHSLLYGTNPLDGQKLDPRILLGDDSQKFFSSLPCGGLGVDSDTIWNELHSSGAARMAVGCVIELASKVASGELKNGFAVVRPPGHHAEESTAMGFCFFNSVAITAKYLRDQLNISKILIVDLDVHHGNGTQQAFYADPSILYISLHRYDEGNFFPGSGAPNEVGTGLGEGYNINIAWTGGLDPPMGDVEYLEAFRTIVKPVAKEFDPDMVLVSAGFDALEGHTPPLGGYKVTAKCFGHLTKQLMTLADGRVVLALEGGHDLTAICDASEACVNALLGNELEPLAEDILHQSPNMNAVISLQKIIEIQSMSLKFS

MDA-MB-231 [11] = assay: Anti-cancer activity against human MDA-MB-231 cells assessed as decrease in p21 level at 1 to 10 uM incubated for 48 hrs by immunoblot analysis; type: functional, cell-based; conditions: dose 1-10 µM
A549 [12] = assay: Induction of apoptosis in human A549 cells at 500 nM by Annexin-V/PI staining based flow cytometry; type: functional, cell-based
[13] = Metabolic stability in mouse hepatocytes assessed as half life at 2 uM measured upto 120 min by LC-MS/MS analysis; type: ADME, cell-based, Hepatocyte
MDA-MB-231 [14] = assay: Anti-cancer activity against human MDA-MB-231 cells assessed as decrease in CDK-4 level at 1 to 10 uM incubated for 48 hrs by immunoblot analysis; type: functional, cell-based; conditions: dose 1-10 µM
A549 [15] = assay: In vivo induction of apoptosis in human A549 cells xenografted in athymic nude Crl:NU-Foxn1nu mouse assessed as increase in Bax level at 30 mg/kg, po administered twice a week for 1 month by immunoblot analysis; type: functional, organism-based; conditions: time 1.0 months
[16] = Metabolic stability in mouse hepatocytes assessed as hepatic clearance at 2 uM measured upto 120 min by LC-MS/MS analysis; type: ADME, cell-based, Hepatocyte
[17] = target: Polyamine deacetylase HDAC10 (Homo sapiens, UniProt Q969S8); assay: Inhibition of N-terminal FLAG-tagged recombinant human HDAC10 (2 to 631 residues) extracted from baculovirus infected Sf9 cells by fluorogenic assay
Sequence of Polyamine deacetylase HDAC10 (Q969S8 whole entry, the tested form may be a part): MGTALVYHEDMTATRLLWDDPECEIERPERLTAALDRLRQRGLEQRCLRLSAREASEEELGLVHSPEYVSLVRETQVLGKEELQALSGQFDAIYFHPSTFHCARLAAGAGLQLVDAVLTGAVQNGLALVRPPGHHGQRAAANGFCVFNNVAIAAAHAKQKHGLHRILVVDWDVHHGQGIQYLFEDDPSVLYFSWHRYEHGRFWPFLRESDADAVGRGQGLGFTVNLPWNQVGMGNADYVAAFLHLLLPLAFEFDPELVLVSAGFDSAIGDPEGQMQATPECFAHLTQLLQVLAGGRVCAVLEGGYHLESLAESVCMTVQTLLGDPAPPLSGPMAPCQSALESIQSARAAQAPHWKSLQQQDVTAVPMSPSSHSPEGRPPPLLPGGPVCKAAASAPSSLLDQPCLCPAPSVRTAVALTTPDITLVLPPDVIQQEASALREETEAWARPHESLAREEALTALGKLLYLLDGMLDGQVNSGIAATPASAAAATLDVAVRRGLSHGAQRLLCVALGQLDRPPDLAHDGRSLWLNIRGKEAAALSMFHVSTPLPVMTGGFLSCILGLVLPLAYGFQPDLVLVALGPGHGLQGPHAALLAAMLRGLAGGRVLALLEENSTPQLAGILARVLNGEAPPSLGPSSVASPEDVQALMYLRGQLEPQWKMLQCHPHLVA

[18] = Antiproliferative activity against human PBMC cells at 10 uM incubated for 48 hrs by MTT assay; type: toxicity, cell-based
[19] = Toxicity in athymic nude Crl:NU-Foxn1nu mouse xenografted with human A549 cells assessed as animal survival at 30 mg/kg, po administered twice a week for 1 month; type: organism-based; conditions: in vivo, 730 h, time 1 months
[20] = Drug metabolism in human hepatocytes assessed as beta-oxidation M2 metabolite formation at 10 uM by LC-MS/MS analysis; type: ADME, cell-based, Hepatocyte
MDA-MB-231 [21] = assay: Anti-cancer activity against human MDA-MB-231 cells assessed as decrease in PCNA level incubated for 48 hrs by immunoblot analysis; type: functional, cell-based; conditions: dose 1-10 µM
MDA-MB-231 [22] = assay: Anti-cancer activity against human MDA-MB-231 cells assessed as decrease in p53 level at 5 to 10 uM incubated for 48 hrs by immunoblot analysis; type: functional, cell-based; conditions: dose 5-10 µM

COc1ccc(-c2ccc3ccc(OCCCCCCC(=O)NO)cc3n2)cc1I
Activity (MDA-MB-231 [1]): inactive | Activity (MDA-MB-231 [2]): Active | Activity (MDA-MB-231 [3]): inactive | Activity (MDA-MB-231 [4]): Active | Activity (MDA-MB-231 [5]): Active

COc1ccc(-c2ccc3cc(OCCCCCC(=O)NO)ccc3n2)cc1
Drug metabolism [6]: metabolite_detected | inhibition (A549 [7]): Active | Activity (MDA-MB-231 [8]): Active | Activity (A549 [9]): Active | IC50 [10]: 88.3 nM | IC50 (Histone deacetylase 9): > 100 nM | Activity (MDA-MB-231 [11]): Active | Activity (A549 [12]): Active | half-life at 2 µM [13]: 1.24 h | Activity (MDA-MB-231 [14]): Active | Activity (A549 [15]): Active | CLhep predicted at 2 µM [16]: 65.9 mL/min/kg | IC50 [17]: 87.1 nM | Activity [18]: Non-toxic | Activity [19]: Non-toxic | Drug metabolism [20]: metabolite_detected | Activity (MDA-MB-231 [21]): Dose-dependent-effect | Activity (MDA-MB-231 [22]): inactive
